The assay relates to A549 NSCLC cells. Put plainly: Cellular cytotoxicity assay (Alamar Blue), A549. Type of assay: cell-based. To be noted: Homo sapiens, 72 h, upper end given as ≧100, read-out: IC50 (μM), cytotoxicity towards A549 NSCLC cells. As for the experimental part:
The anti-proliferative activity of the histone deacetylase inhibitory compounds as described herein, is evaluated using the following cell lines: HeLa and HeLa-KB (cervical carcinoma), H460 (non small cell lung cancer), A549 (non-small cell lung cancer), MCF7 (breast carcinoma), MCF10A (normal, non tumorigenic breast epithelial), MDA-MB468 (breast carcinoma), MDA-MB435 (breast carcinoma), MDA-MB231 (breast carcinoma), SKBR-3 (breast carcinoma), SKOV-3 (ovarial carcinoma), A-2780 (ovarial carcinoma), RKO (colon carcinoma), HCT-15 (colon carcinoma), HCT-116 (colon carcinoma), PC3 (prostate carcinoma), BPH1 (benign prostate hyperplasia), AsPC1 (pancreatic carcinoma), Ca127 (tongue carcinoma), A-431 (vulva carcinoma), Hec1A (endometrial carcinoma), Saos-2 (osteosarcoma), U87MG (glioblastoma), WM266-4 (melanoma), K562 (chronic myeloid leukemia), EOL1 (acute hypereosinophilic myeloid leukemia), CCRF-CEM and CCRF-CEM VCR1000 (acute lymphoblastic leukemia sensitive and resistant towards Vincristine). For quantification of cellular proliferation/living cells the Alamar Blue (Resazurin) cell viability assay is applied (O'Brien et al. Eur J Biochem 267, 5421-5426, 2000). In this assay Resazurin is reduced to the fluorescent resorufine by cellular dehydrogenase activity, correlating with viable, proliferating cells. The examples are dissolved as 20 mM solutions in dimethylsulfoxide (DMSO) and subsequently diluted in semi-logarithmic steps. Cell lines are seeded at respective density into 96 well flat bottom plates in a volume of 200 μl per well. 24 h after seeding 1 μl each of the compound dilutions are added into each well of the 96 well plate. Each compound dilution is tested as quadruplicates. Wells containing untreated control cells are filled with 200 μl DMEM medium containing 0.5% v:v DMSO. The cells are then incubated with the compounds for 72 h at 37° C. in a humidified atmosphere containing 5% carbon dioxide. To determine the viability of the cells, 20 μl of a Resazurin solution (Sigma; 90 mg/l) are added. After 4 h incubation at 37° C. the fluorescence is measured at an extinction of λ=544 nm and an emission of λ=590 nm. For the calculation of the cell viability the emission value from untreated cells is set as 100% viability and the emission rates of treated cells are set in relation to the values of untreated cells. Viabilities are expressed as % values. The corresponding IC50 values of the compounds for cytotoxic activity are determined from the concentration-effect curves by means of non-linear regression.
On the technique in general: Alamar Blue is a resazurin reagent that responds to reducing activity.

Some results are limits rather than exact numbers.

For the molecule `CC(C)c1ccc(N)c(NC(=O)c2nc3c(s2)CN(C(=O)Nc2ccc(F)cc2)CC3)c1` [Example 52, N^2-(2-amino-5-isopropylphenyl)-N^5-(4-fluorophenyl)-6,7-dihydro[1,3]thiazolo[5,4-c]pyridine-2,5(4H)-dicarboxamide], the IC50 is no less than 0.2 µM.
The result for `COc1ccc(NC(=O)N2CCc3nc(C(=O)Nc4cc(N(C)C)ccc4N)sc3C2)cc1` [Example 53, N^2-[2-amino-5-(dimethylamino)phenyl]N^5-(4-methoxyphenyl)-6,7-dihydro[1,3]thiazolo[5,4-c]pyridine-2,5(4H)-dicarboxamide] reads no less than 0.2 µM; that for `COc1ccc(NC(=O)N2CCc3nc(C(=O)Nc4cc(-c5cccs5)ccc4N)sc3C2)cc1` [Example 54, N^2-[2-amino-5-(2-thienyl)phenyl]-N^5-(4-methoxyphenyl)-6,7-dihydro[1,3]thiazolo[5,4-c]pyridine-2,5(4H)-dicarboxamide], no less than 0.2 µM.
The result for `CN(C)c1ccc(NC(=O)N2CCc3nc(C(=O)Nc4cc(-c5cccs5)ccc4N)sc3C2)cc1` [Example 55, N^2-[2-amino-5-(2-thienyl)phenyl]-N^5-[4-(dimethylamino)phenyl]-6,7-dihydro[1,3]thiazolo[5,4-c]pyridine-2,5(4H)-dicarboxamide] reads no less than 0.2 µM; that for `COc1ccc(NC(=O)N2CCc3nc(C(=O)Nc4cc(-c5ccsc5)ccc4N)sc3C2)cc1` [Example 56, N^2-[2-amino-5-(3-thienyl)phenyl]-N^5-(4-methoxyphenyl)-6,7-dihydro[1,3]thiazolo[5,4-c]pyridine-2,5(4H)-dicarboxamide], no less than 0.2 µM.
`Nc1ccccc1NC(=O)c1nc2c(s1)CN(C(=O)Nc1cccc3cnccc13)CC2` [Example 62, N^2-(2-aminophenyl)-N^5-isoquinolin-5-yl-6,7-dihydro[1,3]thiazolo[5,4-c]pyridine-2,5(4H)-dicarboxamide]: the IC50 is no less than 0.2 µM.
The result for `CN(C)c1ccc(NC(=O)C(=O)N2CCc3nc(C(=O)Nc4ccccc4N)sc3C2)cc1` [Example 64, N-(2-aminophenyl)-5-[{[4-(dimethylamino)phenyl]amino}(oxo)acetyl]-4,5,6,7-tetrahydro[1,3]thiazolo[5,4-c]pyridine-2-carboxamide] reads no less than 0.2 µM; that for `COc1ccc(NC(=O)C(=O)N2CCc3nc(C(=O)Nc4ccccc4N)sc3C2)cc1` [Example 65, N-(2-aminophenyl)-5-{[(4-methoxyphenyl)amino](oxo)acetyl}-4,5,6,7-tetrahydro[1,3]thiazolo[5,4-c]pyridine-2-carboxamide], no less than 0.2 µM.
In the case of `COc1ccc(NC(=O)C(=O)N2CCc3nc(C(=O)Nc4ccccc4N)sc3C2)cc1OC` [Example 66, N-(2-aminophenyl)-5-{[(3,4-dimethoxyphenyl)amino](oxo)acetyl}-4,5,6,7-tetrahydro[1,3]thiazolo[5,4-c]pyridine-2-carboxamide], the IC50 is no less than 0.2 µM.
The result for `Nc1ccccc1NC(=O)c1nc2c(s1)CN(C(=O)C(=O)NC1CCC(c3ccncc3)CC1)CC2` (centres unmarked) [Example 67, N-(2-aminophenyl)-5-{oxo[(4-pyridin-4-ylcyclohexyl)amino]acetyl}-4,5,6,7-tetrahydro[1,3]thiazolo[5,4-c]pyridine-2-carboxamide] reads no less than 0.2 µM.
The result for `Nc1ccccc1NC(=O)c1nc2c(s1)CN(C(=O)C(=O)Nc1cccc3cnccc13)CC2` [Example 68, N-(2-aminophenyl)-5-[(isoquinolin-5-ylamino)(oxo)acetyl]-4,5,6,7-tetrahydro[1,3]thiazolo[5,4-c]pyridine-2-carboxamide] reads no less than 0.2 µM.
The result for `Nc1ccccc1NC(=O)c1nc2c(s1)CN(C(=O)C(=O)NC1CCC(c3cccnc3)CC1)CC2` (centres unmarked) [Example 69, N-(2-aminophenyl)-5-{oxo[(4-pyridin-3-ylcyclohexyl)amino]acetyl}-4,5,6,7-tetrahydro[1,3]thiazolo[5,4-c]pyridine-2-carboxamide] reads no less than 0.2 µM.
On to `COc1ccc(NC(=O)C(=O)N2CCc3nc(C(=O)Nc4ccccc4N)sc3C2)cn1` [Example 70, N-(2-aminophenyl)-5-{[(6-methoxypyridin-3-yl)amino](oxo)acetyl}-4,5,6,7-tetrahydro[1,3]thiazolo[5,4-c]pyridine-2-carboxamide], for which the 50% inhibitory concentration (IC50) is no less than 0.2 µM.
The result for `CN(C)c1ccc(NC(=O)C(=O)N2CCc3nc(C(=O)Nc4ccccc4N)sc3C2)cn1` [Example 71, N-(2-aminophenyl)-5-[{[6-(dimethylamino)pyridin-3-yl]amino}(oxo)acetyl]-4,5,6,7-tetrahydro[1,3]thiazolo[5,4-c]pyridine-2-carboxamide] reads no less than 0.2 µM.
The result for `Nc1ccccc1NC(=O)c1nc2c(s1)CN(C(=O)C(=O)Nc1ccc(OC(F)(F)F)cc1)CC2` [Example 72, N-(2-aminophenyl)-5-(oxo{[4-(trifluoromethoxy)phenyl]amino}acetyl)-4,5,6,7-tetrahydro[1,3]thiazolo[5,4-c]pyridine-2-carboxamide] reads no less than 0.2 µM.
For `Nc1ccccc1NC(=O)c1nc2c(s1)CN(C(=O)C(=O)Nc1ccc(N3CCOCC3)nc1)CC2` [Example 73, N-(2-aminophenyl)-5-{[(6-morpholin-4-ylpyridin-3-yl)amino](oxo)acetyl}-4,5,6,7-tetrahydro[1,3]thiazolo[5,4-c]pyridine-2-carboxamide], the half-maximal inhibitory concentration (IC50) is no less than 0.2 µM.
As to `Nc1ccccc1NC(=O)c1nc2c(s1)CN(C(=O)C(=O)Nc1ccc3c(c1)OCO3)CC2` [Example 74, N-(2-aminophenyl)-5-[(1,3-benzodioxol-5-ylamino)(oxo)acetyl]-4,5,6,7-tetrahydro[1,3]thiazolo[5,4-c]pyridine-2-carboxamide], the IC50 was no less than 0.2 µM.
The result for `Cc1ccc(NC(=O)C(=O)N2CCc3nc(C(=O)Nc4ccccc4N)sc3C2)cc1` [Example 75, N-(2-aminophenyl)-5-{[(4-methylphenyl)amino](oxo)acetyl}-4,5,6,7-tetrahydro[1,3]thiazolo[5,4-c]pyridine-2-carboxamide] reads no less than 0.2 µM; that for `Cc1ccc(NC(=O)C(=O)N2CCc3nc(C(=O)Nc4ccccc4N)sc3C2)nc1` [Example 76, N-(2-aminophenyl)-5-{[(5-methylpyridin-2-yl)amino](oxo)acetyl}-4,5,6,7-tetrahydro[1,3]thiazolo[5,4-c]pyridine-2-carboxamide], no less than 0.2 µM.
`Nc1ccccc1NC(=O)c1nc2c(s1)CN(C(=O)C(=O)Nc1cnc3ccccc3c1)CC2` [Example 77, N-(2-aminophenyl)-5-[oxo(quinolin-3-ylamino)acetyl]-4,5,6,7-tetrahydro-[1,3]thiazolo[5,4-c]pyridine-2-carboxamide]: the half-maximal inhibitory concentration (IC50) was no less than 0.2 µM.
The result for `COc1ccc(NC(=O)C(=O)N2CCc3nc(C(=O)Nc4cc(OC)ccc4N)sc3C2)cc1` [Example 78, N-(2-amino-5-methoxyphenyl)-5-{[(4-methoxyphenyl)amino](oxo)acetyl}-4,5,6,7-tetrahydro[1,3]thiazolo[5,4-c]pyridine-2-carboxamide] reads no less than 0.2 µM; that for `CCCCNC(=O)C(=O)N1CCc2nc(C(=O)Nc3ccccc3N)sc2C1` [Example 79, N-(2-aminophenyl)-5-[(butylamino)(oxo)acetyl]-4,5,6,7-tetrahydro[1,3]thiazolo[5,4-c]pyridine-2-carboxamide], no less than 0.2 µM; that for `COc1ccc(NC(=O)C(=O)N2CCc3nc(C(=O)Nc4cc(C(C)C)ccc4N)sc3C2)cc1OC` [Example 80, N-(2-amino-5-isopropylphenyl)-5-{[(3,4-dimethoxyphenyl)amino](oxo)acetyl}-4,5,6,7-tetrahydro[1,3]thiazolo[5,4-c]pyridine-2-carboxamide], no less than 0.2 µM.
The result for `COc1ccc(NC(=O)C(=O)N2CCc3nc(C(=O)Nc4cc(C(C)C)ccc4N)sc3C2)cc1` [Example 81, N-(2-amino-5-isopropylphenyl)-5-{[(4-methoxyphenyl)amino](oxo)acetyl}-4,5,6,7-tetrahydro[1,3]thiazolo[5,4-c]pyridine-2-carboxamide] reads no less than 0.2 µM; that for `COc1ccc(N)c(NC(=O)c2nc3c(s2)CN(C(=O)C(=O)Nc2ccc(OC)c(OC)c2)CC3)c1` [Example 82, N-(2-amino-5-methoxyphenyl)-5-{[(3,4-dimethoxyphenyl)amino](oxo)acetyl}-4,5,6,7-tetrahydro[1,3]thiazolo[5,4-c]pyridine-2-carboxamide], no less than 0.2 µM; that for `CCCCNC(=O)C(=O)N1CCc2nc(C(=O)Nc3cc(OC)ccc3N)sc2C1` [Example 83, N-(2-amino-5-methoxyphenyl)-5-[(butylamino)(oxo)acetyl]-4,5,6,7-tetrahydro[1,3]thiazolo[5,4-c]pyridine-2-carboxamide], no less than 0.2 µM.

Usually IC50 stands for the point on the concentration scale where inhibition reaches its midpoint.

The record behind these values is patent US8440830B2, “Tetrahydro-fused pyridines as histone deacetylase inhibitors” (4SC AG, priority 2007, dated 2013).
